PubChem BioAssay AID328 (DTP/NCI, 2004)
Where “and” joins values, the source holds several entries; their conditions need not be identical. Equal values may be shown once. Toxic doses and inconclusive results are not listed. Residues, ends and D or L forms follow the SMILES beside them. *: point of attachment. Trt = c1ccc(C(c2ccccc2)(c2ccccc2)*)cc1; Bn = c1ccc(C*)cc1

Test system: BDF1 mice, P388 leukemia ip, median survival T/C
Assay: NCI In Vivo Anticancer Drug Screen. Data for tumor model P388 Leukemia (intraperitoneal) in B6D2F1 (BDF1) mice
Conditions: endpoint: median survival time, higher = longer survival
Summary of the method: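 Each value expresses how treatment altered survival: treated-mouse outcome over vehicle-mouse outcome, both groups bearing the transplanted tumour.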

[1] = dose: 50.0 mg/kg/injection, schedule: Q01DX009 (ip), vehicle: saline with Tween-80
[2] = dose: 100.0 mg/kg/injection, schedule: Q01DX009 (ip), vehicle: saline with Tween-80
[3] = dose: 200.0 mg/kg/injection, schedule: Q01DX009 (ip), vehicle: saline with Tween-80
[4] = dose: 50.0 mg/kg/injection, schedule: Q01DX009 (ip), vehicle: Klucel (hydroxypropylcellulose) (HPC)
[5] = dose: 100.0 mg/kg/injection, schedule: Q04DX003 (ip), vehicle: saline
[6] = dose: 12.5 mg/kg/injection, schedule: Q01DX009 (ip), vehicle: Klucel (hydroxypropylcellulose) (HPC)
[7] = dose: 25.0 mg/kg/injection, schedule: Q01DX009 (ip), vehicle: Klucel (hydroxypropylcellulose) (HPC)
[8] = dose: 100.0 mg/kg/injection, schedule: Q01DX009 (ip), vehicle: other

Structure (SMILES): CC(C)(COC(=O)c1cc(Br)ccc1Br)NC(=O)c1cc(Br)ccc1Br
- T/C [1]: 91 % of control
- T/C [2]: 97 % of control
- T/C [3]: 97 % of control

Structure (SMILES): c1ccc(C/C(N=Nc2ccccc2)=N\Nc2ccccc2)cc1
- T/C [4]: 110 % of control
- T/C (dose: 100.0 mg/kg/injection, schedule: Q01DX009 (ip), vehicle: Klucel (hydroxypropylcellulose) (HPC)): 110 % of control
- T/C (dose: 200.0 mg/kg/injection, schedule: Q01DX009 (ip), vehicle: Klucel (hydroxypropylcellulose) (HPC)): 100 % of control

Structure (SMILES): CCOC(=O)N1CCc2cc(OC)c(OC)cc2C1Cc1ccc(OC)c(OC)c1 (stereo not given)
- T/C (dose: 50.0 mg/kg/injection, schedule: Q01DX005 (ip), vehicle: saline with Tween-80): 92 % of control
- T/C (dose: 100.0 mg/kg/injection, schedule: Q01DX005 (ip), vehicle: saline with Tween-80): 105 % of control
- T/C (dose: 200.0 mg/kg/injection, schedule: Q01DX005 (ip), vehicle: saline with Tween-80): 92 % of control

Structure (SMILES): CCCOC(=O)C1(N)CCCC1
- T/C [2]: 100 % of control
- T/C [3]: 90 % of control

Structure (SMILES): Cn1c(=O)c2[nH]c(CCCc3nc4c([nH]3)c(=O)n(C)c(=O)n4C)nc2n(C)c1=O
- T/C (dose: 25.0 mg/kg/injection, schedule: Q01DX009 (ip), vehicle: saline): 90 % of control
- T/C (dose: 50.0 mg/kg/injection, schedule: Q01DX009 (ip), vehicle: saline): 89 % of control
- T/C (dose: 50.0 mg/kg/injection, schedule: Q04DX003 (ip), vehicle: saline): 100 % of control
- T/C (dose: 100.0 mg/kg/injection, schedule: Q01DX009 (ip), vehicle: saline): 96 % of control and 122 % of control
- T/C [5]: 108 % of control

Structure (SMILES): CC(=O)NNc1ccccc1
- T/C [6]: 109 % of control
- T/C [7]: 109 % of control
- T/C [4]: 100 % of control
- T/C (dose: 200.0 mg/kg/injection, schedule: Q04DX003 (ip), vehicle: Klucel (hydroxypropylcellulose) (HPC)): 117 % of control

Structure (SMILES): CCOC(=O)N=C=O
- T/C (dose: 100.0 mg/kg/injection, schedule: Q01DX009 (ip), vehicle: water): 114 % of control
- T/C (dose: 100.0 mg/kg/injection, schedule: Q04DX003 (ip), vehicle: water): 96 % of control
- T/C (dose: 200.0 mg/kg/injection, schedule: Q01DX009 (ip), vehicle: water): 110 % of control
- T/C (dose: 200.0 mg/kg/injection, schedule: Q04DX003 (ip), vehicle: water): 99 % of control
- T/C (dose: 400.0 mg/kg/injection, schedule: Q04DX003 (ip), vehicle: water): 107 % of control

Structure (SMILES): COC(=O)C(CSC(c1ccccc1)(c1ccccc1)c1ccccc1)NC(=O)C(CSCc1ccccc1)NC(C)=O (stereo not given) (Ac-Cys(Bn)-Cys(Trt)-OMe; configuration not given here)
- T/C [8]: 88 % of control
- T/C (dose: 200.0 mg/kg/injection, schedule: Q01DX009 (ip), vehicle: other): 93 % of control
- T/C (dose: 400.0 mg/kg/injection, schedule: Q01DX009 (ip), vehicle: other): 107 % of control

Structure (SMILES): Cc1c(C)c(O)c2c(c1O)C(=O)C=C(Cl)C2=O
- T/C (dose: 6.25 mg/kg/injection, schedule: Q04DX003 (ip), vehicle: saline with Tween-80): 121 % of control
- T/C (dose: 12.5 mg/kg/injection, schedule: Q04DX003 (ip), vehicle: saline with Tween-80): 119 % of control and 120 % of control
- T/C (dose: 25.0 mg/kg/injection, schedule: Q04DX003 (ip), vehicle: saline with Tween-80): 110 % of control and 120 % of control

Structure (SMILES): CCN1C=C/C(=C\C=C/c2cc[n+](CC)c3ccccc23)c2ccccc21
- T/C (dose: 0.13 mg/kg/injection, schedule: Q01DX009 (ip), vehicle: saline): 113 % of control
- T/C (dose: 0.25 mg/kg/injection, schedule: Q01DX009 (ip), vehicle: saline): 160 % of control
- T/C (dose: 0.27 mg/kg/injection, schedule: Q04DX003 (ip), vehicle: saline): 115 % of control
- T/C (dose: 0.4 mg/kg/injection, schedule: Q01DX009 (ip), vehicle: Klucel (hydroxypropylcellulose) (HPC)): 150 % of control
- T/C (dose: 0.4 mg/kg/injection, schedule: Q04DX003 (ip), vehicle: saline): 100 % of control and 115 % of control
- T/C (dose: 0.5 mg/kg/injection, schedule: Q01DX009 (ip), vehicle: saline): 160 % of control
- T/C (dose: 0.62 mg/kg/injection, schedule: Q01DX009 (ip), vehicle: Klucel (hydroxypropylcellulose) (HPC)): 154 % of control
- T/C (dose: 0.62 mg/kg/injection, schedule: Q04DX003 (ip), vehicle: saline): 100 % of control and 110 % of control
- T/C (dose: 0.66 mg/kg/injection, schedule: Q04DX003 (ip), vehicle: saline): 154 % of control
- T/C (dose: 0.82 mg/kg/injection, schedule: Q04DX003 (ip), vehicle: saline): 155 % of control
- T/C (dose: 44.0 micrograms/kg/injection, schedule: Q01DX009 (ip), vehicle: saline): 108 % of control

Structure (SMILES): O=c1ccc2cc(-c3ccncc3)cnc2[nH]1
- T/C (dose: 100.0 mg/kg/injection, schedule: Q04DX002 (ip), vehicle: saline with Tween-80): 108 % of control

Structure (SMILES): O=C(Nc1cccc(Cl)c1)Oc1ccc2ccccc2c1
- T/C (dose: 100.0 mg/kg/injection, schedule: Q01DX001 (ip), vehicle: Klucel (hydroxypropylcellulose) (HPC)): 109 % of control
- T/C (dose: 200.0 mg/kg/injection, schedule: Q01DX001 (ip), vehicle: Klucel (hydroxypropylcellulose) (HPC)): 113 % of control
- T/C (dose: 400.0 mg/kg/injection, schedule: Q01DX001 (ip), vehicle: Klucel (hydroxypropylcellulose) (HPC)): 100 % of control

Structure (SMILES): CSc1ncnc2c1ncn2C1OC(CO)C(O)C1O (stereo not given)
- T/C (dose: 4.0 mg/kg/injection, schedule: Q01DX010 (ip), vehicle: saline): 113 % of control
- T/C (dose: 8.0 mg/kg/injection, schedule: Q01DX010 (ip), vehicle: saline): 122 % of control
- T/C (dose: 32.0 mg/kg/injection, schedule: Q01DX010 (ip), vehicle: saline): 118 % of control

Structure (SMILES): Cc1ncc(CO)c(CO)c1O
- T/C [5]: 122 % of control
- T/C (dose: 200.0 mg/kg/injection, schedule: Q04DX003 (ip), vehicle: saline): 113 % of control
- T/C (dose: 400.0 mg/kg/injection, schedule: Q04DX003 (ip), vehicle: saline): 95 % of control

Structure (SMILES): CCCCCCCCCCCCCCCCCC(=O)[O][Hg][c]1ccccc1
- T/C (dose: 5.0 mg/kg/injection, schedule: Q01DX009 (ip), vehicle: Klucel (hydroxypropylcellulose) (HPC)): 100 % of control
- T/C (dose: 5.5 mg/kg/injection, schedule: Q01DX001 (ip), vehicle: Klucel (hydroxypropylcellulose) (HPC)): 104 % of control
- T/C (dose: 10.0 mg/kg/injection, schedule: Q01DX009 (ip), vehicle: Klucel (hydroxypropylcellulose) (HPC)): 104 % of control
- T/C (dose: 10.0 mg/kg/injection, schedule: Q01DX009 (ip), vehicle: other): 115 % of control
- T/C (dose: 11.0 mg/kg/injection, schedule: Q01DX001 (ip), vehicle: Klucel (hydroxypropylcellulose) (HPC)): 95 % of control
- T/C (dose: 14.0 mg/kg/injection, schedule: Q04DX003 (ip), vehicle: Klucel (hydroxypropylcellulose) (HPC)): 115 % of control
- T/C (dose: 20.0 mg/kg/injection, schedule: Q01DX009 (ip), vehicle: Klucel (hydroxypropylcellulose) (HPC)): 109 % of control
- T/C (dose: 22.0 mg/kg/injection, schedule: Q04DX003 (ip), vehicle: Klucel (hydroxypropylcellulose) (HPC)): 120 % of control

Structure (SMILES): NC(=O)CCCNC(=O)CCC[c-]1[c-][c-][c-][c-]1.[Fe].[c-]1[c-][c-][cH-][c-]1
- T/C (dose: 6.25 mg/kg/injection, schedule: Q01DX009 (ip), vehicle: other): 100 % of control
- T/C (dose: 12.5 mg/kg/injection, schedule: Q01DX009 (ip), vehicle: other): 98 % of control
- T/C (dose: 25.0 mg/kg/injection, schedule: Q01DX009 (ip), vehicle: other): 100 % of control
- T/C (dose: 50.0 mg/kg/injection, schedule: Q01DX009 (ip), vehicle: other): 114 % of control
- T/C [8]: 121 % of control

Structure (SMILES): Cc1cc(Cl)ccc1NC(=O)N1c2ccccc2SC12CCCC2
- T/C [1]: 97 % of control
- T/C [2]: 91 % of control
- T/C [3]: 104 % of control

Structure (SMILES): C[C@@H]1CC2=CC(=O)CC[C@@H]2[C@H]2CC[C@@]3(C)[C@@H](CC[C@]3(C)O)[C@@H]21
- T/C [2]: 104 % of control
- T/C (dose: 100.0 mg/kg/injection, schedule: Q04DX003 (ip), vehicle: saline with Tween-80): 100 % of control
- T/C [3]: 90 % of control

Structure (SMILES): CC12CCC(C1)C(C)(C)C2NCCCN1C(=O)c2ccc3c4c(ccc(c24)C1=O)C(=O)N(CCCNC1C2(C)CCC(C2)C1(C)C)C3=O (stereo not given)
- T/C (dose: 6.25 mg/kg/injection, schedule: Q01DX009 (ip), vehicle: Klucel (hydroxypropylcellulose) (HPC)): 105 % of control
- T/C [6]: 100 % of control
- T/C [7]: 115 % of control and 116 % of control

Structure (SMILES): Cc1ccc(C(CC(=O)O)CC(=O)O)c(O)c1
- T/C (dose: 100.0 mg/kg/injection, schedule: Q01DX009 (ip), vehicle: gum acacia): 100 % of control
- T/C (dose: 100.0 mg/kg/injection, schedule: Q04DX003 (ip), vehicle: gum acacia): 111 % of control
- T/C (dose: 200.0 mg/kg/injection, schedule: Q01DX009 (ip), vehicle: gum acacia): 103 % of control
- T/C (dose: 200.0 mg/kg/injection, schedule: Q04DX003 (ip), vehicle: gum acacia): 103 % of control
- T/C (dose: 400.0 mg/kg/injection, schedule: Q01DX009 (ip), vehicle: gum acacia): 89 % of control
- T/C (dose: 400.0 mg/kg/injection, schedule: Q04DX003 (ip), vehicle: gum acacia): 88 % of control
